From paper PMC4314633, “Homo-β-amino acid containing MBP(85–99) analogs alleviate experimental autoimmune encephalomyelitis” (Scientific Reports, 2015)
Each block holds one compound with its values, some of them ahead of it. Where a SMILES comes first, the peptide text is derived from it. [ ]: non-standard residue; d: D form. ξ: configuration not given here. ξβ3hE = NC(CCC(=O)O)CC(=O)O; ξβ3hK = NCCCCC(N)CC(=O)O; ξβ3hA = CC(N)CC(=O)O

Tests used:
α-chymotrypsin = α-chymotrypsin (Bos taurus, UniProt P00766); assay: Proteolysis assay with chymotrypsin, RP-HPLC; type: in vitro ADME; conditions: chymotrypsin 0.1 μg/ml, peptide 1 mg/ml, PBS with 0.01% sodium azide, 37°C
Procedure: Aliquots were drawn at various time points and analyzed by high pressure liquid chromatography (HPLC, Shimadzu). Degradation mixtures were resolved on a C18 column (Phenomenix) using acetonitrile/water with 0.1% trifluroacetic acid (TFA) as a solvent system at a flow rate of 0.4 ml/minute. Analogs un-cleaved in the reaction mixture were quantified in terms of percent peak area. […] Aliquots were drawn and analyzed on a polyacrylamide gel (15%).

[1] = tested on: experimental autoimmune encephalomyelitis in SJL/J mice; assay: EAE treatment setup in SJL/J mice; type: in vivo, mouse; conditions: treatment: 100 μg subcutaneously daily for a week
Procedure: Animals were perfused intra-cardially with ice cold PBS and 4% paraformaldehyde (PFA) sequentially under deep anesthesia. Thereafter intact spinal cord tissue was dissected out, equilibrated with 30% sucrose and embedded in tissue freezing media (Polyfreez, Polysciences). Subsequently, transverse sections (15 μM thick) were cut through lumbar region in a cryotome (Thermo) and collected in storage buffer (30% glycerol and ethylene glycol in PBS). Sections were retrieved from storage buffer, transferred into citrate buffer (10 mM, pH 6.0) and incubated at 65°C for 30 minutes for antigen retrieval. After 30 minute incubation period, sections were equilibrated with PBS and blocked using 3% bovine serum albumin and 1% normal serum for 2 hours at room temperature. […]

[2] = tested on: experimental autoimmune encephalomyelitis in SJL/J mice; assay: EAE prevention (pre-treatment) setup in SJL/J mice; type: in vivo, mouse; conditions: prevention: 400 μg in IFA a week prior to immunization with MBP(85–99)
Procedure: EAE was induced and assessed as described previously. SJL/J (female; 6–8 week old) were injected subcutaneously with 100 μg of MBP(85–99) (two immunizations spaced a week apart) emulsified in complete Freund's adjuvant (CFA). Immunized mice were also given an intra-peritoneal injection of pertussis toxin (200 ng) on day 0 and 2. Severity of clinical disability was scored on a scale of 0 to 5, where, 0, no detectable signs of EAE; 1, complete tail paralysis; 2, wobbly gait; 3, complete hind limb paralysis; 4, complete hind and fore limb paralysis or moribund; 5, dead.

RRMS = conditions: cited from earlier work
From the text: However, therapeutic potencies of such antigen-specific modalities has always been moderate due to their peptidic nature e.g. in the case of GA it is only 20–30 percent. Expectedly, it is their minimal stability in proteolytic milieu and thus inefficient presentation on antigen presenting cells (APCs) which perhaps gets translated into their reduced efficacy.

percent hydrolyzed (α-chymotrypsin; in 6 hours, RP-HPLC percent peak area): > 50%
Compound: CC(C)[C@H](NC(=O)[C@H](CCCCN)NC(=O)[C@@H]1CCCN1C(=O)[C@H](CCCCN)NC(=O)[C@@H](N)CCC(=O)O)C(=O)N[C@@H](CCC(=O)O)C(=O)N[C@@H](C)C(=O)N[C@@H](Cc1ccc(O)cc1)C(=O)N[C@@H](CCCCN)C(=O)N[C@@H](C)C(=O)N[C@@H](C)C(=O)N[C@@H](C)C(=O)N[C@@H](C)C(=O)N1CCC[C@H]1C(=O)N[C@@H](C)C(=O)O [J5]

time up to which detectable in the reaction mixture (α-chymotrypsin; RP-HPLC): ≤ 2 days | percent remaining intact in reaction mixture (α-chymotrypsin; after 12 hours, RP-HPLC percent peak area, n ≥ 3): > 90%
Compound: CC(CC(=O)O)NC(=O)CC(C)NC(=O)CC(C)NC(=O)CC(C)NC(=O)CC(CCCCN)NC(=O)[C@H](Cc1ccc(O)cc1)NC(=O)[C@H](C)NC(=O)[C@H](CCC(=O)O)NC(=O)[C@@H](NC(=O)[C@H](CCCCN)NC(=O)[C@@H]1CCCN1C(=O)CC(CCCCN)NC(=O)CC(N)CCC(=O)O)C(C)C (stereo partly drawn) [S18] (H-[ξβ3hE][ξβ3hK]PKVEAY[ξβ3hK][ξβ3hA][ξβ3hA][ξβ3hA][ξβ3hA]-OH)

Compound: glatiramer acetate [GA]
duration of therapeutic effect post-treatment [1]: ~ 1.7 weeks | reduction of disease severity (cumulative disability score) [1]: 30–35% | reduction of disease severity (cumulative disability score) [2]: 40–50% | therapeutic potency (RRMS): 20–30%
